Measured values taken from patent US8053581B2, “Trisubstituted thiazole compounds, preparations methods, pharmaceutical compositions and medicals uses thereof” (Institute of Pharmacology and Toxicology Academy of …, priority 2006, dated 2011).

Columns and labels:
PLTP = molecular target: T1, PLTP (Homo sapiens, UniProt P55058); assay: Determination of PLTP inhibition activity (radiolabelled phospholipid liposome to HDL transfer with plasma); format: biochemical
T1 construct: from tissue
Experimental: 30 μl (about 1000 cpm/μl) phospholipids liposome, 30 μl HDL ([…]), 337 μl TSE and 3 μl plasma were mixed, incubated in 37° C. water-bath for 1 hour, and then added 300 μl of a settling solution (50 ml solution preparation: 5.36 ml 5N NaCl, 9.075 ml 2M MnCl2 and 46 mg liver phospholipid were mixed, added water to 50 ml), the solution was stood at room temperature for 10 minutes, rotated at high speed for 10 minutes (to remove phospholipids liposome), 500 μl of the supernatant was sampled and counted. PLTP activity (cpm/h/3 μl)=sample cpm-background cpm.

CETP = molecular target: T2, CETP (Homo sapiens, UniProt P11597); assay: Determination of CETP inhibition activity (fluorescent donor/acceptor transfer); format: biochemical; details: Concentration of compounds 500 μM; read-out: CETP inhibition activity Inhibition rate(%)
T2 sequence (P11597 18-493): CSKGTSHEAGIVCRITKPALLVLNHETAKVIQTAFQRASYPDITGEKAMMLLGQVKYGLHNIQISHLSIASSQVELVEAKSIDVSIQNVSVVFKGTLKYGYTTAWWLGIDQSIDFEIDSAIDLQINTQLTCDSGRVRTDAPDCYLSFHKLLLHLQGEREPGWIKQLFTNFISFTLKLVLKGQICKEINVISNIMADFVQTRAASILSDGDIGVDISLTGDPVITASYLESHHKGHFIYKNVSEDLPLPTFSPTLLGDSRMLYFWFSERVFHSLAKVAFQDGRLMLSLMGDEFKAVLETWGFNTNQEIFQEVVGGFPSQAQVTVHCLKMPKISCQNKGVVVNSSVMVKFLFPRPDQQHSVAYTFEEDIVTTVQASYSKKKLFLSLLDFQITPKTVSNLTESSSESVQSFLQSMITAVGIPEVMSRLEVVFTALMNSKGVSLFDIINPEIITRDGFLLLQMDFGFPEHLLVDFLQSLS
Experimental: A mixture containing 3 μl of a donor, 9 μl of an acceptor (250 μg protein), 3 μl of CETP solution and 85 μl of an analytic buffer, 10 mM Tris, 0.15 M NaCl and 2 mM EDTA, pH 7.4 was incubated at 37° C. for 0.5 hours, the fluorescence intensity was determined on Victor 3 double illuminometer/fluorescence counter (Perkin Elmer) carrying […] light wave length.

T1 sequence (P55058 18-493, species assumed): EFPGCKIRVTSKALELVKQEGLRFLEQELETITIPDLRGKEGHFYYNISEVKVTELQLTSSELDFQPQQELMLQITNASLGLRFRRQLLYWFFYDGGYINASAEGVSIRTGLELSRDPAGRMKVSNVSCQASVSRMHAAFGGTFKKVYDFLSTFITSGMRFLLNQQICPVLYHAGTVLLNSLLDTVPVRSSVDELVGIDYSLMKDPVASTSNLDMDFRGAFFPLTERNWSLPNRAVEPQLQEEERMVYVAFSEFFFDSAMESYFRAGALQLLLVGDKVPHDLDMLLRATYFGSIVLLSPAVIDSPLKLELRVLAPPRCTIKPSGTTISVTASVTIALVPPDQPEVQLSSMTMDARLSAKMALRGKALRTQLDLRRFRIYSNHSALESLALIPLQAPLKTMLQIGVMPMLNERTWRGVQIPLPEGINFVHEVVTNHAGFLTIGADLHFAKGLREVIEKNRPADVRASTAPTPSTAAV

Structure (SMILES) | melting point [°C] | other results
COc1ccc(-c2nc(NC(=O)c3ccc(F)cc3)sc2Cc2ccccc2)cc1 [Example 4, N-[5-benzyl-4-(4-methoxy-phenyl)-thiazol-2-yl]-4-fluoro-benzamide] | 164 to 165 | 
COc1ccc(-c2nc(NC(=O)c3cc(F)cc(F)c3)sc2Cc2ccccc2)cc1 [Example 16, N-[5-benzyl-4-(4-methoxy-phenyl)-thiazol-2-yl]-3,5-difluoro-benzamide] | 154 to 155 | 
COc1ccc(-c2nc(NC(=O)c3cc(OC)c(OC)c(OC)c3)sc2Cc2ccccc2)cc1 [Example 37, N-[5-benzyl-4-(4-methoxy-phenyl)-thiazol-2-yl]-3,4,5-trimethoxy-benzamide] | 157 to 158 | 
COc1ccc(-c2nc(NC(=O)c3cc(F)cc(F)c3)sc2Cc2ccc(F)cc2)cc1 [Example 22, 3,5-difluoro-N-[5-(4-fluoro-benzyl)-4-(4-methoxy-phenyl)-thiazol-2-yl]-benzamide] | 175 to 176 | 
Nc1nc(-c2ccccc2)c(Cc2ccc([N+](=O)[O-])cc2)s1 [Example 26, 5-(4-nitro-benzyl)-4-phenyl-thiazol-2-ylamine] | 215 to 216 | 
COc1ccc(-c2nc(NC(=O)c3ccc(F)cc3)sc2Cc2ccc(F)cc2)cc1 [Example 23, 4-fluoro-N-[5-(4-fluoro-benzyl)-4-(4-methoxy-phenyl)-thiazol-2-yl]-benzamide] | 184 to 185 | 
COc1ccc(-c2nc(NC(=O)c3ccc(F)cc3)sc2Cc2ccc([N+](=O)[O-])cc2)cc1 [Example 10, 4-fluoro-N-[4-(4-methoxy-phenyl)-5-(4-nitro-benzyl)-thiazol-2-yl]-benzamide] | 188 to 189 | 
COc1ccc(-c2nc(NC(=O)c3ccc(OC)c(OC)c3)sc2Cc2ccc(F)cc2)cc1 [Example 30, N-[5-(4-fluoro-benzyl)-4-(4-methoxy-phenyl)-thiazol-2-yl]-3,4-dimethoxy-benzamide] | 140 to 142 | 
COc1ccc(-c2nc(NC(=O)c3ccc(C#N)cc3)sc2Cc2ccccc2)cc1 [Example 13, N-[5-benzyl-4-(4-methoxy-phenyl)-thiazol-2-yl]-4-cyano-benzamide] | 194 to 196 | 
COc1ccc(-c2nc(NC(=O)c3ccc(OC)c(OC)c3)sc2Cc2ccccc2)cc1 [Example 12, N-[5-benzyl-4-(4-methoxy-phenyl)-thiazol-2-yl]-3,4-dimethoxy-benzamide] | 179 to 180 | 
COc1ccc(-c2nc(NC(=O)c3ccc(OC)cc3OC)sc2Cc2ccccc2)cc1 [Example 35, N-[5-benzyl-4-(4-methoxy-phenyl)-thiazol-2-yl]-2,4-dimethoxy-benzamide] | 196 to 197 | 
COc1ccc(C(=O)Nc2nc(-c3ccc(F)cc3)c(Cc3ccc([N+](=O)[O-])cc3)s2)cc1OC [Example 20, N-[4-(4-fluoro-phenyl)-5-(4-nitro-benzyl)-thiazol-2-yl]-3,4-dimethoxy-benzamide] | 128 to 129 | 
COc1ccc(-c2nc(N(C(=O)c3ccc(OC)c(OC)c3)C(=O)c3ccc(OC)c(OC)c3)sc2Cc2ccc(F)cc2)cc1 [Example 24] | 136 to 137 | 
O=C(Nc1nc(-c2ccc(F)cc2)c(Cc2ccc([N+](=O)[O-])cc2)s1)c1ccc(F)cc1 [Example 11, 4-fluoro-N-[4-(4-fluoro-phenyl)-5-(4-nitro-benzyl)-thiazol-2-yl]-benzamide] | 120 to 122 | 
Cc1sc(NC(=O)c2ccc(O)c(O)c2)nc1-c1ccc(O)cc1 [Example 56, 3,4-dihydroxy-N-[4-(4-hydroxy-phenyl)-5-methyl-thiazol-2-yl]-benzamide] |  | IC50 (PLTP): 75 µM; inhibition at 250 µM (PLTP; Concentration of compounds 250 μM, read-out: PLTP inhibition activity Inhibition rate(%)): 71.9%; inhibition at 500 µM (CETP): 58.7%
COc1ccc(-c2nc(N)sc2Cc2ccc([N+](=O)[O-])cc2)cc1 [Example 6, 4-(4-methoxy-phenyl)-5-(4-nitro-benzyl)-thiazol-2-ylamine] | 209 to 210 | 
O=C(Nc1nc(-c2ccc(O)cc2)c(Cc2ccccc2)s1)c1ccc(F)cc1 [Example 7, N-[5-benzyl-4-(4-hydroxy-phenyl)-thiazol-2-yl]-4-fluoro-benzamide] | 205 to 206 | 
COc1ccc(-c2nc(NC(=O)c3cc(F)cc(F)c3)sc2Cc2ccc([N+](=O)[O-])cc2)cc1 [Example 17, 3,5-difluoro-N-[4-(4-methoxy-phenyl)-5-(4-nitro-benzyl)-thiazol-2-yl]-benzamide] | 189 to 190 | 
COc1ccc(-c2nc(NC(=O)c3ccc(Cl)cc3)sc2Cc2ccccc2)cc1 [Example 5, N-[5-benzyl-4-(4-methoxy-phenyl)-thiazol-2-yl]-4-chloro-benzamide] | 182 to 183 | 
COc1ccc(-c2nc(NC(=O)c3ccc(C#N)cc3)sc2Cc2ccc(F)cc2)cc1 [Example 25, 4-cyano-N-[5-(4-fluoro-benzyl)-4-(4-methoxy-phenyl)-thiazol-2-yl]-benzamide] | 191 to 192 | 
COc1ccc(C(=O)Nc2nc(-c3ccc(OC)cc3)c(Cc3ccccc3)s2)cc1 [Example 27, N-[5-benzyl-4-(4-methoxy-phenyl)-thiazol-2-yl]-4-methoxy-benzamide] | 58 to 59 | 

Further lines, with some results ahead:

melting point [°C] | Structure (SMILES) | other results
233 to 234 | O=C(Nc1nc(-c2ccc(O)cc2)c(Cc2ccccc2)s1)c1cccc(O)c1 [Example 44, N-[5-benzyl-4-(4-hydroxy-phenyl)-thiazol-2-yl]-3-hydroxy-benzamide] | 
254 to 255 | O=C(Nc1nc(-c2ccc(O)cc2)c(Cc2ccccc2)s1)c1ccc(O)cc1 [Example 46, N-[5-benzyl-4-(4-hydroxy-phenyl)-thiazol-2-yl]-4-hydroxy-benzamide] | 
279 to 280 | O=C(Nc1nc(-c2ccc(O)cc2)c(Cc2ccccc2)s1)c1ccccc1O [Example 39, N-[5-benzyl-4-(4-hydroxy-phenyl)-thiazol-2-yl]-2-hydroxy-benzamide] | 
71 to 72 | COc1ccc(-c2nc(NC(=O)c3cccc(OC)c3)sc2Cc2ccccc2)cc1 [Example 42, N-[5-benzyl-4-(4-methoxy-phenyl)-thiazol-2-yl]-3-methoxy-benzamide] | 
262 to 263 | O=C(Nc1nc(-c2ccc(O)cc2)c(Cc2ccccc2)s1)c1cc(O)cc(O)c1 [Example 45, N-[5-benzyl-4-(4-hydroxy-phenyl)-thiazol-2-yl]-3,5-dihydroxy-benzamide] | 
139 to 140 | COc1ccc(-c2nc(N)sc2C)cc1 [Example 52, 4-(4-methoxy-phenyl)-5-methyl-thiazol-2-ylamine] | 
177 to 178 | Oc1ccc(-c2nc(CCc3ccc(O)c(O)c3)sc2Cc2ccccc2)cc1 [Example 78, 4-{2-[5-benzyl-4-(4-hydroxy-phenyl)-thiazol-2-yl]-ethyl}-benzene-1,2-diol] | 
222 to 223 | Oc1ccc(-c2nc(N3CCNCC3)sc2Cc2ccccc2)cc1 [Example 75, 4-(5-benzyl-2-piperazin-4-yl-thiazol-4-yl)-phenol] | 
197 to 198 | CCCCc1sc(NC(=O)c2cc(OC)c(OC)c(OC)c2)nc1-c1ccc(OC)cc1 [Example 64, N-[5-n-butyl-4-(4-methoxy-phenyl)-thiazol-2-yl]-3,4,5-trimethoxy-benzamide] | 
142 to 143 | COc1ccc(-c2nc(NC(=O)CCc3ccc(OC)c(OC)c3)sc2Cc2ccccc2)cc1 [Example 68, N-[5-benzyl-4-(4-methoxy-phenyl)-thiazol-2-yl]-3-(3,4-dimethoxy-phenyl)-propanamide] | 
119 to 120 | COc1ccc(-c2nc(N(CCO)CCO)sc2Cc2ccccc2)cc1 [Example 73, 2-[[5-benzyl-4-(4-methoxy-phenyl)-thiazol-2-yl]-(2-hydroxy-ethyl)-amino]-ethanol] | 
193 to 194 | COc1ccc(-c2nc(NC(=O)c3cc(OC)c(OC)c(OC)c3)sc2CC2CCCCC2)cc1 [Example 50] | 
105 to 106 | COc1ccc(-c2nc(NC(=O)c3cc(OC)c(OC)c(OC)c3)sc2C)cc1 [Example 53, 3,4,5-trimethoxy-N-[4-(4-methoxy-phenyl)-5-methyl-thiazol-2-yl]-benzamide] | 
174 to 175 | COc1ccc(-c2nc(NC(=O)c3ccc(OC)c(OC)c3)sc2C)cc1 [Example 54, 3,4-dimethoxy-N-[4-(4-methoxy-phenyl)-5-methyl-thiazol-2-yl]-benzamide] | 
152 to 153 | COc1ccc(-c2nc(NC(=O)c3cc(OC)cc(OC)c3)sc2Cc2ccccc2)cc1 [Example 43, N-[5-benzyl-4-(4-methoxy-phenyl)-thiazol-2-yl]-3,5-dimethoxy-benzamide] | 
